Assay results as given in the NIST ThermoML archive (doi:10.1016/j.tca.2010.06.003).
Numbers after ± are expanded uncertainties.

Details: for Normal melting temperature: Crystal; for Triple point temperature: Crystal 2, DTA

SMILES | Normal melting temperature [°C] | Triple point temperature [K]
O=[N+]([O-])[O-].[Na+] [sodium nitrate] | 306.5 ± 2 | 545.5 ± 0.5
O=[N+]([O-])[O-].[K+] [potassium nitrate] | 333.6 ± 2 | 405.6 ± 0.5
